According to ChEMBL document CHEMBL4819010, “Design, synthesis, and biological studies of novel 3-benzamidobenzoic acid derivatives as farnesoid X receptor partial agonist” (Eur J Med Chem, 2021):
Each block holds one compound with its values, some of them ahead of it. Activity calls are given as the source filed them. The calls are words filed in the database; no cut-off is given here.

Key:
[1] = biological target: T1, Bile acid receptor (Homo sapiens, UniProt Q96RI1); test: Agonist activity at FXR-LBD (unknown origin) assessed by ligand binding ability incubated for 3 hrs in absence of light measured by TR-FRET Coactivator assay
T1 sequence (Q96RI1 whole entry): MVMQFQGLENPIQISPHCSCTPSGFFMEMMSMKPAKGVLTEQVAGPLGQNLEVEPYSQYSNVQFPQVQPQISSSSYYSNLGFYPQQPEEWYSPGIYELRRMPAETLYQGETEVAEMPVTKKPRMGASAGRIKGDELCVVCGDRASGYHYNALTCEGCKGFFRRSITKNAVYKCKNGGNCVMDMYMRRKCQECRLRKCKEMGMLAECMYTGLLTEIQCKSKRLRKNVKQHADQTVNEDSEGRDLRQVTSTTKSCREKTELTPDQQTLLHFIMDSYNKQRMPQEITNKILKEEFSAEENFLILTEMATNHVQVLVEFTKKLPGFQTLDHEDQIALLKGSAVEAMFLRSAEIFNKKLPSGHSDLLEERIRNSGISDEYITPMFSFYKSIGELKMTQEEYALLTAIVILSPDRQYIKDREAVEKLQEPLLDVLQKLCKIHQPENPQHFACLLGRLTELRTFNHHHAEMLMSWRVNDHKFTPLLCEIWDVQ

[2] = test system: HepG2; test: Agonist activity at FXR (unknown origin)/human RXR heterodimer expressing in human HepG2 cells co-expressing pCMV gal assessed luciferase activity measured after 24 hrs by cell based luciferase transactivation assay relative to […]; conditions: dose 3.0 µM
[3] = test system: Mus musculus; test: Hepatoprotective activity in APAP-induced C57BL/6 mouse liver injury model assessed as decrease in hepatic haemorrhage at 30 mg/kg, bid oral gavage for 5 days measured after 12 hrs of APAP injection; format: functional, organism-based; conditions: time 5.0 day
[4] = test system: Mus musculus; test: Hepatoprotective activity in APAP-induced C57BL/6 mouse liver injury model assessed as decrease in serum AST levels at 30 mg/kg, bid oral gavage measured after 5 days; format: functional, organism-based; conditions: time 5.0 day
[5] = test system: Mus musculus; test: Hepatoprotective activity in APAP-induced C57BL/6 mouse liver injury model assessed as decrease in hepatic necrosis at 30 mg/kg, bid oral gavage for 5 days measured after 12 hrs of APAP injection; format: functional, organism-based; conditions: time 5.0 day
[6] = test system: Mus musculus; test: Hepatoprotective activity in APAP-induced C57BL/6 mouse liver injury model assessed as decrease in hepatic degeneration at 30 mg/kg, bid oral gavage for 5 days measured after 12 hrs of APAP injection; format: functional, organism-based; conditions: time 5.0 day
[7] = test system: Mus musculus; test: Hepatoprotective activity in APAP-induced C57BL/6 mouse liver injury model assessed as decrease in serum LDH levels at 30 mg/kg, bid oral gavage measured after 5 days; format: functional, organism-based; conditions: time 5.0 day
[8] = test system: Mus musculus; test: Hepatoprotective activity in APAP-induced C57BL/6 mouse liver injury model assessed as decrease in serum ALT levels at 30 mg/kg, bid oral gavage measured after 5 days; format: functional, organism-based; conditions: time 5.0 day
[9] = Agonist activity at FXR (unknown origin)/human RXR heterodimer expressing in human HepG2 cells co-expressing pCMV gal assessed luciferase activity measured after 24 hrs by cell based luciferase transactivation assay; conditions: HepG2, 24 h
[10] = biological target: T2, Bile acid receptor (Mus musculus) (UniProt Q60641); test: In vivo agonist activity at FXR in C57BL/6 mouse assessed as upregulation of OST beta mRNA expression at 30 mg/kg, bid ip measured after 5 days by RT-PCR method; format: functional, organism-based; conditions: time 5.0 day
T2 sequence (whole entry): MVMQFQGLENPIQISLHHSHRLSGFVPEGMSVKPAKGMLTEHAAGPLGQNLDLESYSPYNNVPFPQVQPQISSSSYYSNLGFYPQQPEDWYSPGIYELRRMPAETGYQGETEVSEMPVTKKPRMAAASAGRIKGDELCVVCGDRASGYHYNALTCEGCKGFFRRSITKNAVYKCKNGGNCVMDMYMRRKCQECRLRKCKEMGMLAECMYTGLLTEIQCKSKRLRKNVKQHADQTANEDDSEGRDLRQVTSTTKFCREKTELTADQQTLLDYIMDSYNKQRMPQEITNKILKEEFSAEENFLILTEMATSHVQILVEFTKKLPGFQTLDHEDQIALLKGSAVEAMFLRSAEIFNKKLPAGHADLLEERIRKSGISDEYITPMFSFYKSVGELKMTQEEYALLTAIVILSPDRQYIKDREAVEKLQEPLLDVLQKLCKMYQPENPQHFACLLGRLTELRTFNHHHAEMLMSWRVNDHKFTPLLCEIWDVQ

[11] = biological target: T2, Bile acid receptor (Mus musculus); test: In vivo agonist activity at FXR in C57BL/6 mouse assessed as inhibition of APAP-induced FXR decline at 30 mg/kg, bid ip measured after 5 days by RT-PCR method; format: functional, organism-based; conditions: time 5.0 day
[12] = biological target: T2, Bile acid receptor (Mus musculus); test: In vivo agonist activity at FXR in C57BL/6 mouse assessed as increase of BSEP mRNA expression at 30 mg/kg, bid ip measured after 5 days by RT-PCR method; format: functional, organism-based; conditions: time 5.0 day
[13] = test system: Mus musculus; test: Hepatoprotective activity in APAP-induced C57BL/6 mouse liver injury model assessed as increase in Gpx1 mRNA expression at 30 mg/kg, bid oral gavage measured after 5 days by qRT-PCR method; format: functional, organism-based; conditions: time 5.0 day
[14] = test system: Mus musculus; test: Hepatoprotective activity in APAP-induced C57BL/6 mouse liver injury model assessed as increase in Gclm mRNA expression at 30 mg/kg, bid oral gavage measured after 5 days by qRT-PCR method; format: functional, organism-based; conditions: time 5.0 day
[15] = test system: Mus musculus; test: Hepatoprotective activity in APAP-induced C57BL/6 mouse liver injury model assessed as increase in GSH levels at 30 mg/kg, bid oral gavage measured after 5 days; format: functional, organism-based; conditions: time 5.0 day
[16] = test system: Mus musculus; test: Hepatoprotective activity in APAP-induced C57BL/6 mouse liver injury model assessed as increase in SOD1 mRNA expression at 30 mg/kg, bid oral gavage measured after 5 days by qRT-PCR method; format: functional, organism-based; conditions: time 5.0 day
[17] = biological target: T2, Bile acid receptor (Mus musculus); test: In vivo agonist activity at FXR in C57BL/6 mouse assessed as increase of UGT1A1 mRNA expression at 30 mg/kg, bid ip measured after 5 days by RT-PCR method; format: functional, organism-based; conditions: time 5.0 day
[18] = test system: Mus musculus; test: Hepatoprotective activity in APAP-induced C57BL/6 mouse liver injury model assessed as decrease in […] at 30 mg/kg, bid oral gavage measured after 5 days; format: functional, organism-based; conditions: time 5.0 day
[19] = test system: Mus musculus; test: Hepatoprotective activity in APAP-induced C57BL/6 mouse liver injury model assessed as increase in SOD2 mRNA expression at 30 mg/kg, bid oral gavage measured after 5 days by qRT-PCR method; format: functional, organism-based; conditions: time 5.0 day
[20] = biological target: T2, Bile acid receptor (Mus musculus); test: In vivo agonist activity at FXR in C57BL/6 mouse assessed as decrease of CYP7A1 mRNA expression at 30 mg/kg, bid ip measured after 5 days by RT-PCR method; format: functional, organism-based; conditions: time 5.0 day
[21] = biological target: T2, Bile acid receptor (Mus musculus); test: In vivo agonist activity at FXR in C57BL/6 mouse assessed as upregulation of IBABP mRNA expression at 30 mg/kg, bid ip measured after 5 days by RT-PCR method; format: functional, organism-based; conditions: time 5.0 day
[22] = biological target: T2, Bile acid receptor (Mus musculus); test: In vivo agonist activity at FXR in C57BL/6 mouse assessed as upregulation of SHP mRNA expression at 30 mg/kg, bid ip measured after 5 days by RT-PCR method; format: functional, organism-based; conditions: time 5.0 day
[23] = test system: Mus musculus; test: Hepatoprotective activity in APAP-induced C57BL/6 mouse liver injury model assessed as increase in catalase mRNA expression at 30 mg/kg, bid oral gavage measured after 5 days by qRT-PCR method; format: functional, organism-based; conditions: time 5.0 day

Compound: COc1ccccc1C(=O)Nc1cccc(C(=O)O)c1
EC50 [1]: > 10000 nM

Compound: Cc1cc(C(=O)Nc2cccc(C(=O)O)c2)nn1-c1ccccc1
EC50 [1]: > 10000 nM

Compound: CC(Oc1cccc(NC(=O)c2ccc(Oc3ccccc3)cc2)c1)C(=O)O (stereo not given)
EC50 [1]: > 10000 nM

Compound: O=C(O)c1cccc(NC(=O)c2nc(-c3ccccc3)cs2)c1
EC50 [1]: 2880 nM

Compound: O=C(O)c1cccc(OCc2ccc(Oc3ccccc3)cc2)c1
EC50 [1]: > 10000 nM

Compound: CCOc1cccc(C(=O)Nc2cccc(C(=O)O)c2)c1
EC50 [1]: 2350 nM

Compound: COc1ccccc1C(=O)Nc1ccc(C)c(C(=O)O)c1
EC50 [1]: > 10000 nM

Compound: CO/N=C(/COc1ccc(C(=O)Nc2cccc(C(=O)O)c2)cc1)c1ccccc1
EC50 [1]: > 10000 nM

Compound: Cc1ccc(NC(=O)c2cccc(C(=O)O)c2)cc1
EC50 [1]: > 10000 nM

Compound: CCCCCOc1cccc(C(=O)Nc2cccc(C(=O)O)c2)c1
EC50 [1]: 2540 nM

Compound: CC(C)CCOc1cccc(C(=O)Nc2cccc(C(=O)O)c2)c1
EC50 [1]: 2760 nM

Compound: O=C(Nc1ccccc1C(=O)O)c1ccc(Oc2ccccc2)cc1
EC50 [1]: > 10000 nM

Compound: O=C(O)c1ccc(NC(=O)c2ccc(Oc3ccccc3)cc2)cc1
EC50 [1]: > 10000 nM

Compound: O=C(O)c1cccc(NC(=O)c2ccc(-c3ccccc3)cc2)c1
EC50 [1]: > 10000 nM

Compound: O=C(O)COc1cccc(NC(=O)c2ccc(Oc3ccccc3)cc2)c1
EC50 [1]: > 10000 nM

Compound: CC(C)(Oc1cccc(NC(=O)c2ccc(Oc3ccccc3)cc2)c1)C(=O)O
EC50 [1]: > 10000 nM

The next compounds have a lower EC50 [1] than those just listed; values first:

EC50 [1]: 1860 nM
Compound: Cc1cccc(COc2cccc(C(=O)Nc3cccc(C(=O)O)c3)c2)c1

EC50 [1]: 105 nM
Compound: CCCCOc1ccc(C(=O)Nc2cccc(C(=O)O)c2)cc1

EC50 [1]: 1160 nM
Compound: O=C(O)c1cccc(NC(=O)c2cccc(OCc3ccccc3)c2)c1

EC50 [1]: 1420 nM
Compound: Cc1ccc(COc2cccc(C(=O)Nc3cccc(C(=O)O)c3)c2)cc1

EC50 [1]: 97 nM
EC50 [9]: 463 nM
Compound: O=C(O)c1cccc(NC(=O)c2ccc(Oc3ccccc3)cc2)c1
Activity [2]: 21.2%
Activity [3]: Active
Activity [4]: Active
Activity [5]: Active
Activity [6]: Active
Activity [7]: Active
Activity [8]: Active

EC50 [1]: 2150 nM
Compound: CCCOc1cccc(C(=O)Nc2cccc(C(=O)O)c2)c1

EC50 [1]: 607 nM
Compound: COc1ccc(C(=O)Nc2cccc(C(=O)O)c2)cc1

EC50 [1]: 256 nM
Compound: CCCCOc1cccc(-c2cccc(C(=O)Nc3cccc(C(=O)O)c3)c2)c1

EC50 [1]: 1260 nM
Compound: O=C(O)c1cccc(NC(=O)c2cccc(OCC3CC3)c2)c1

EC50 [1]: 259 nM
Compound: Cc1cccc(COc2ccc(C(=O)Nc3cccc(C(=O)O)c3)cc2)c1

EC50 [1]: 68 nM
EC50 [9]: 385 nM
Compound: Cc1ccccc1-c1cccc(C(=O)Nc2cccc(C(=O)O)c2)c1
Activity [2]: 23.1%

EC50 [1]: 315 nM
Compound: Cc1nc(-c2ccc(C(F)(F)F)cc2)sc1C(=O)Nc1cccc(C(=O)O)c1

EC50 [1]: 319 nM
Compound: O=C(O)c1cccc(NC(=O)c2ccc(OCc3cccc(-c4ccccc4)c3)cc2)c1

EC50 [1]: 1690 nM
Compound: O=C(O)c1cccc(NC(=O)c2csc(-c3ccc(C(F)(F)F)cc3)n2)c1

EC50 [1]: 135 nM
Compound: O=C(O)c1cccc(NC(=O)c2ccc(OCc3ccccc3)cc2)c1

EC50 [1]: 1020 nM
Compound: Cc1ccccc1-c1cccc(COc2ccc(C(=O)Nc3cccc(C(=O)O)c3)cc2)c1

EC50 [1]: 1040 nM
Compound: COc1cccc(C(=O)Nc2cccc(C(=O)O)c2)c1

EC50 [1]: 127 nM
Compound: Cc1ccc(NC(=O)c2ccc(Oc3ccccc3)cc2)cc1C(=O)O

Activity [10]: Active
Activity [11]: Active
Activity [17]: Active
EC50 [1]: 25 nM
Activity [20]: Active
Activity [21]: Active
Activity [22]: Active
EC50 [9]: 196 nM
Compound: O=C(O)c1cccc(NC(=O)c2cccc(-c3ccccc3)c2)c1
Activity [2]: 28.6%
Activity [3]: Active
Activity [12]: Active
Activity [13]: Active
Activity [14]: Active
Activity [15]: Active
Activity [16]: Active
Activity [4]: Active
Activity [5]: Active
Activity [18]: Active
Activity [19]: Active
Activity [6]: Active
Activity [7]: Active
Activity [8]: Active
Activity [23]: Active

EC50 [1]: 265 nM
Compound: O=C(O)c1ccc(OCc2ccc(OCc3c(-c4c(Cl)cccc4Cl)noc3C3CC3)cc2)cc1
Activity [3]: Active
Activity [4]: Active
Activity [5]: Active
Activity [6]: Active
Activity [7]: Active
Activity [8]: Active

EC50 [1]: 215 nM
Compound: CC(C)CCOc1ccc(C(=O)Nc2cccc(C(=O)O)c2)cc1
